Test [1] relates to mouse models of allergic airway disease. As to conditions: small molecule activators of PP2A; cited from earlier work.
Test [2] deals with D425 medulloblastoma cells. The test can be described thus: D425 medulloblastoma cell viability / growth inhibition (CellTiter-Glo). The class given is cell-based. Conditions: n = 3, 0.1% DMSO. As to the method:
D425 medulloblastoma cells were purchased from SigmaAldrich. D425 meduloblastoma cells were cultured in improved Dulbecco's modified Eagle's medium (DMEM) Richter's modification supplemented with 20% fetal bovine serum and 1% Penicillin-streptomycin. Incubation was performed at 37° C. and 5% CO2.
D425 cells were seeded at 3000-3500 cells/90 μL growth medium per well on 96-well tissue culture plates. Cells were incubated overnight to allow them to recover. Next day cells were treated with tested compounds and incubated for 48 hours.
Cell Proliferation assays in triplicate were performed at each concentration. Compounds test range was 1-30 μM (0, 5, 10, 15, 20, 25, and 30). The compounds were dissolved in DMSO. A series of dilutions were made in 1% DMSO in growth medium so that the final concentration of DMSO is 0.1% in all of treatments.
After treatment, cells were allowed to equilibrate at room temperature for one hour. Cell proliferation was measured by Luminescence quantification using Promega CellTiter-Glo Luminescent Cell Viability Assay. To perform the assay, 90 μL of Celltiter-Glo substrate was added to each well, plates were shake for 2 minutes and allowed to equilibrate for 10 minutes at room temperature. Luminescence intensity was measured using the Spectramax i3x plate reader.
The Luminescence intensity data were analyzed using the computer software Graphpad Prism. In the absence of the compound, the luminescence intensity (Lt) in each data set was defined as 100% cell viability. The percent cell in the presence of each compound was calculated according to the following equation: % Cell=L/Lt, were L=the luminescence intensity in the presence of the compound.
The values of % cell versus a series of compound concentrations (0, 5, 10, 15, 20, 25, and 30 μM) were then plotted using Nonlinear regression analysis of Sigmoidal dose-response curve. IC50 value was determined by the concentration causing a half-maximal percent activity.
A general note: ATP-based viability assays read luminescence as a measure of living cells.

Test [3] concerns phosphatase activity in ApoE transfected A172 glioblastoma cells. In words: Cellular in vitro phosphatase activation assay (Malachite Green, ApoE cDNA transfected A172 cells). The class given is cell-based. Conditions: Homo sapiens, A 172, A172 glioblastoma cells transfected with ApoE cDNA, 24 hours, n = 3, read-out: % increase from ApoE transfected cell at 5 μM test compound concentration. As to the method:
Cellular in vitro phosphatase activation assay was performed using the method of Theendakara et al, Molecular and Cellular Neuroscience, 83 (2017), pages 83-91 which is described below:
A172 glioblastoma cells were cultured in Dulbecco's modified Eagle's medium (DMEM) supplemented with 10% fetal bovine serum and 1% Penicillin-streptomycin. Incubation was performed at 37° C. and 5% CO2.
A172 cells were seeded at 5×10^5 cells/2.5 ml growth medium (without antibiotics) per well on 6-well tissue culture plates. Cells were incubated overnight to allow them to recover and reattach. […]
After 24 hrs, cells were washed twice with imidazole buffer and lysed using NP-40 Lysis buffer. […] The amount of phosphate release in the assay was determined by measuring absorbance at 620 nm using the Spectramax i3x plate reader.
The absorbance intensity data were analyzed using the computer software Graphpad Prism. The phosphate concentration for each sample was determined from the standard curve using phosphate standard concentrations. In order to compare samples, the first set (column A) were there was no transfection performed and no compound added, was designated a baseline; the absorbance measurement in this column was set as 100% phosphatase activity.

Usually pIC50 stands for the negative decadic logarithm of the IC50, by convention in mol/L. High values mean a low IC50, low ones a high IC50.

Each structure is given as a SMILES string. pIC50: −log10 of the molar value.

Regarding `CCCCCCCOc1ccc(CCC(C)(N)CO)cc1` [AAL(S), 2-amino-4-(4-(heptyloxy)phenyl)-2-methylbutan-1-ol], the “development of inflammation, airway hyperreactivity in mouse models of allergic airway disease” value in test [1] is on record as “inhibited the development of inflammation, airway hyperreactivity”. Take `CCCCCCCCc1ccc(CCC(N)(CO)CO)cc1` [fingolimod]: in test [1], the “development of inflammation, airway hyperreactivity in mouse models of allergic airway disease” value is given as “inhibited the development of inflammation, airway hyperreactivity”. Turning to `N=S(=O)(N[C@H]1CCOC(C2c3ccccc3CCc3ccccc32)C1)c1ccc(OC(F)(F)F)cc1` (single isomer, unassigned) [Example 4], the pIC50 in test [2] (48 hours) was 5.02.

Regarding `N=S(=O)(N[C@H]1CCOC(C2c3ccccc3CCc3ccccc32)C1)c1ccc(OC(F)(F)F)cc1` (single isomer, unassigned) [Example 3], in test [3], the activation at 5 µM was found to be 22%. For the same molecule, the pIC50 in test [2] (Medulloblastoma cell, 48 h) was 5.08. In turn, `N=S(=O)(N[C@H]1CCO[C@@H](C(c2ccc(F)cc2)c2ccc(F)cc2)C1)c1ccc(OC(F)(F)F)cc1` (single isomer, unassigned) [Example 7-isomer1] gave a negative-log IC50 (pIC50) in test [2] (Medulloblastoma cell, 48 h) of 4.84.

Molecule `N=S(=O)(N[C@H]1CCO[C@@H](C(c2ccc(F)cc2)c2ccc(F)cc2)C1)c1ccc(OC(F)(F)F)cc1` (single isomer, unassigned) [Example 7-isomer2] had a pIC50 in test [2] (48 hours) of 4.98.
